# Laboratory results from patent publication US20250206732A1, “COMPOUNDS AND METHODS FOR THE TARGETED DEGRADATION OF KRAS” (Arvinas Operations, Inc., priority 2022, published 2025).
# Target: T1, AsPC-1 HiBiT-KRASG12D (Homo sapiens, UniProt P01116, G12D)
# T1 construct: insert the HiBiT tag onto the N-terminus of one or more of the endogenous KRAS alleles; endogenous in cells; host or cells: AsPC-1 (ATCC CRL-1682), CRISPR-Cas9 knock-in clone, one tagged allele
# Assay: HiBiT degradation assay (G12D), AsPC-1 HiBiT-KRASG12D cells
# Type: cell-based
# Conditions: 24 hours treatment; for Dmax: ASPC1, AsPC-1 HiBiT-KRASG12D cells, maximum degradation observed; for DC50: AsPC-1 HiBiT-KRASG12D cells, HiBiT luminescence
# Summary of the method: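 In this degradation format, an engineered AsPC-1 clone with HiBiT fused to the KRAS N-terminus is exposed to compounds for 24 hours, after which remaining tagged protein is quantified by lytic HiBiT luminescence.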
# T1 sequence (P01116 1-188 isoform P01116-2 G12D): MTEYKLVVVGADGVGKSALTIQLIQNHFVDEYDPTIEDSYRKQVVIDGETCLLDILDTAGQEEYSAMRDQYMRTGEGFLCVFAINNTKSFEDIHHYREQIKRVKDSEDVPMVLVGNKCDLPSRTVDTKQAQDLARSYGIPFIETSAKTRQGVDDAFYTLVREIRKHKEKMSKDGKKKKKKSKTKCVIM
Compound,Dmax [%],DC50 [nM]
"C#Cc1c(F)ccc2cc(O)cc(-c3ncc4c(N5CC6CCC(C5)N6)nc(OCCN5CCC(CC6CCN(c7cc([C@@H](C(=O)N8C[C@H](O)C[C@H]8C(=O)N[C@@H](C)c8ccc(-c9ccnn9C)cc8)C(C)C)on7)CC6)CC5)nc4c3F)c12 [Compound 169, (2S,4R)-1-[(2S)-2-(3-{4-[(1-{2-[(4-{3,8-diazabicyclo[3.2.1]octan-3-yl}-7-(8-ethynyl-7-fluoro-3-hydroxynaphthalen-1-yl)-8-fluoropyrido[4,3-d]pyrimidin-2-yl)oxy]ethyl}piperidin-4-yl)methyl]piperidin-1-yl}-1,2-oxazol-5-yl)-3-methylbutanoyl]-4-hydroxy-N-[(1S)-1-[4-(1-methyl-1H-pyrazol-5-yl)phenyl]ethyl]pyrrolidine-2-carboxamide]",20 to 60,600 to 1000
"C#Cc1c(F)ccc2cc(O)cc(-c3ncc4c(N5CC6CCC(C5)N6)nc(OCCN5CCC(CN6CCN(c7cc([C@@H](C(=O)N8C[C@H](O)C[C@H]8C(=O)N[C@@H](C)c8ccc(-c9ccnn9C)cc8)C(C)C)on7)CC6)CC5)nc4c3F)c12 [Compound 170, (2S,4R)-1-[(2S)-2-(3-{4-[(1-{2-[(4-{3,8-diazabicyclo[3.2.1]octan-3-yl}-7-(8-ethynyl-7-fluoro-3-hydroxynaphthalen-1-yl)-8-fluoropyrido[4,3-d]pyrimidin-2-yl)oxy]ethyl}piperidin-4-yl)methyl]piperazin-1-yl}-1,2-oxazol-5-yl)-3-methylbutanoyl]-4-hydroxy-N-[(1S)-1-[4-(1-methyl-1H-pyrazol-5-yl)phenyl]ethyl]pyrrolidine-2-carboxamide]",20 to 60,1000 to 3000
"C#Cc1c(F)ccc2cc(O)cc(-c3ncc4c(N5CC6CCC(C5)N6)nc(OCCN5CCC(F)(CN6CCN(c7cc([C@@H](C(=O)N8C[C@H](O)C[C@H]8C(=O)N[C@@H](C)c8ccc(-c9ccnn9C)cc8)C(C)C)on7)CC6)CC5)nc4c3F)c12 [Compound 171, (2S,4R)-1-[(2S)-2-(3-{4-[(1-{2-[(4-{3,8-diazabicyclo[3.2.1]octan-3-yl}-7-(8-ethynyl-7-fluoro-3-hydroxynaphthalen-1-yl)-8-fluoropyrido[4,3-d]pyrimidin-2-yl)oxy]ethyl}-4-fluoropiperidin-4-yl)methyl]piperazin-1-yl}-1,2-oxazol-5-yl)-3-methylbutanoyl]-4-hydroxy-N-[(1S)-1-[4-(1-methyl-1H-pyrazol-5-yl)phenyl]ethyl]pyrrolidine-2-carboxamide]",20 to 60,1000 to 3000
"C#Cc1c(F)ccc2cc(O)cc(-c3ncc4c(N5CC6CCC(C5)N6)nc(OCCN5CCC(F)(CN6CCN(c7cc([C@H](C(=O)N8C[C@H](O)C[C@H]8C(=O)N[C@@H](C)c8ccc(-c9scnc9C)cc8)C(C)C)on7)CC6)CC5)nc4c3F)c12 [Compound 172, (2S,4R)-1-[(2R)-2-(3-{4-[(1-{2-[(4-{3,8-diazabicyclo[3.2.1]octan-3-yl}-7-(8-ethynyl-7-fluoro-3-hydroxynaphthalen-1-yl)-8-fluoropyrido[4,3-d]pyrimidin-2-yl)oxy]ethyl}-4-fluoropiperidin-4-yl)methyl]piperazin-1-yl}-1,2-oxazol-5-yl)-3-methylbutanoyl]-4-hydroxy-N-[(1S)-1-[4-(4-methyl-1,3-thiazol-5-yl)phenyl]ethyl]pyrrolidine-2-carboxamide]",80 to 100,< 600
"C#Cc1c(F)ccc2cc(O)cc(-c3ncc4c(N5CC6CCC(C5)N6)nc(OCCN5CCC(CCOc6cc([C@H](C(=O)N7C[C@H](O)C[C@H]7C(=O)N[C@@H](C)c7ccc(-c8scnc8C)cc7)C(C)C)on6)CC5)nc4c3F)c12 [Compound 173, (2S,4R)-1-[(2R)-2-{3-[2-(1-{2-[(4-{3,8-diazabicyclo[3.2.1]octan-3-yl}-7-(8-ethynyl-7-fluoro-3-hydroxynaphthalen-1-yl)-8-fluoropyrido[4,3-d]pyrimidin-2-yl)oxy]ethyl}piperidin-4-yl)ethoxy]-1,2-oxazol-5-yl}-3-methylbutanoyl]-4-hydroxy-N-[(1S)-1-[4-(4-methyl-1,3-thiazol-5-yl)phenyl]ethyl]pyrrolidine-2-carboxamide]",80 to 100,< 600
"C#Cc1c(F)ccc2cc(O)cc(-c3ncc4c(N5CC6CCC(C5)N6)nc(OCCN5CCC(CCOc6cc([C@@H](C(=O)N7C[C@H](O)C[C@H]7C(=O)N[C@@H](C)c7ccc(-c8scnc8C)cc7)C(C)C)on6)CC5)nc4c3F)c12 [Compound 174, (2S,4R)-1-[(2S)-2-{3-[2-(1-{2-[(4-{3,8-diazabicyclo[3.2.1]octan-3-yl}-7-(8-ethynyl-7-fluoro-3-hydroxynaphthalen-1-yl)-8-fluoropyrido[4,3-d]pyrimidin-2-yl)oxy]ethyl}piperidin-4-yl)ethoxy]-1,2-oxazol-5-yl}-3-methylbutanoyl]-4-hydroxy-N-[(1S)-1-[4-(4-methyl-1,3-thiazol-5-yl)phenyl]ethyl] pyrrolidine-2-carboxamide]",80 to 100,< 600
"C#Cc1c(F)ccc2cc(O)cc(-c3ncc4c(N5CC6CCC(C5)N6)nc(OCCN5CCC(C(C)(C)N6CCN(c7cc([C@H](C(=O)N8C[C@H](O)C[C@H]8C(=O)N[C@@H](C)c8ccc(-c9scnc9C)cc8)C(C)C)on7)CC6)CC5)nc4c3F)c12 [Compound 175, (2S,4R)-1-[(2R)-2-(3-{4-[2-(1-{2-[(4-{3,8-diazabicyclo[3.2.1]octan-3-yl}-7-(8-ethynyl-7-fluoro-3-hydroxynaphthalen-1-yl)-8-fluoropyrido[4,3-d]pyrimidin-2-yl)oxy]ethyl}piperidin-4-yl)propan-2-yl]piperazin-1-yl}-1,2-oxazol-5-yl)-3-methylbutanoyl]-4-hydroxy-N-[(1S)-1-[4-(4-methyl-1,3-thiazol-5-yl)phenyl]ethyl] pyrrolidine-2-carboxamide]",80 to 100,< 600
"C#Cc1c(F)ccc2cc(O)cc(-c3ncc4c(N5CC6CCC(C5)N6)nc(OCCN5CCC(C6CCN(c7cc([C@H](C(=O)N8C[C@H](O)C[C@H]8C(=O)N[C@@H](C)c8ccc(-c9scnc9C)cc8)C(C)C)on7)CC6)CC5)nc4c3F)c12 [Compound 176, (2S,4R)-1-[(2R)-2-[3-(1′-{2-[(4-{3,8-diazabicyclo[3.2.1]octan-3-yl}-7-(8-ethynyl-7-fluoro-3-hydroxynaphthalen-1-yl)-8-fluoropyrido[4,3-d]pyrimidin-2-yl)oxy]ethyl}-[4,4′-bipiperidin]-1-yl)-1,2-oxazol-5-yl]-3-methylbutanoyl]-4-hydroxy-N-]",80 to 100,< 600
"C#Cc1c(F)ccc2cc(O)cc(-c3ncc4c(N5CC6CCC(C5)N6)nc(OCCN5CCC(C6CCN(c7cc([C@@H](C(=O)N8C[C@H](O)C[C@H]8C(=O)N[C@@H](C)c8ccc(-c9scnc9C)cc8)C(C)C)on7)CC6)CC5)nc4c3F)c12 [Compound 177, (2S,4R)-1-[(2S)-2-[3-(1′-{2-[(4-{3,8-diazabicyclo[3.2.1]octan-3-yl}-7-(8-ethynyl-7-fluoro-3-hydroxynaphthalen-1-yl)-8-fluoropyrido[4,3-d]pyrimidin-2-yl)oxy]ethyl}-[4,4′-bipiperidin]-1-yl)-1,2-oxazol-5-yl]-3-methylbutanoyl]-4-hydroxy-N-[(1S)-1-[4-(4-methyl-1,3-thiazol-5-yl)phenyl]ethyl]pyrrolidine-2-carboxamide]",60 to 80,< 600
"C#Cc1c(F)ccc2cc(O)cc(-c3ncc4c(N5CC6CCC(C5)N6)nc(OCCN5CCC(CN6CCN(c7cnc(C(=O)N[C@H](C(=O)N8C[C@H](O)C[C@H]8C(=O)N[C@@H](C)c8ccc(-c9scnc9C)cc8)C(C)(C)C)cn7)CC6)CC5)nc4c3F)c12 [Compound 179, 5-{4-[(1-{2-[(4-{3,8-diazabicyclo[3.2.1]octan-3-yl}-7-(8-ethynyl-7-fluoro-3-hydroxynaphthalen-1-yl)-8-fluoropyrido[4,3-d]pyrimidin-2-yl)oxy]ethyl}piperidin-4-yl)methyl]piperazin-1-yl}-N-[(2S)-1-[(2S,4R)-4-hydroxy-2-{[(1S)-1-[4-(4-methyl-1,3-thiazol-5-yl)phenyl]ethyl]carbamoyl}pyrrolidin-1-yl]-3,3-dimethyl-1-oxobutan-2-yl]pyrazine-2-carboxamide]",80 to 100,< 600
CCc1cccc2cc(O)cc(-c3ncc4c(N5CC6CCC(C5)N6)nc(N5CC(N6CCC(CC7CN(c8cc([C@@H](C(=O)N9C[C@H](O)C[C@H]9C(=O)N[C@@H](C)c9ccc(-c%10scnc%10C)cc9)C(C)C)on8)C7)CC6)C5)nc4c3F)c12 [Compound 180],,> 3000
"CCc1cccc2cc(O)cc(-c3ncc4c(N5CC6CCC(C5)N6)nc(OC[C@H]5CN(CC6CN(c7cc([C@@H](C(=O)N8C[C@H](O)C[C@H]8C(=O)N[C@@H](C)c8ccc(-c9scnc9C)cc8)C(C)C)on7)C6)CCN5C)nc4c3F)c12 [Compound 181, (2S,4R)-1-[(2S)-2-[3-(3-{[(3R)-3-{[(4-{3,8-diazabicyclo[3.2.1]octan-3-yl}-7-(8-ethyl-3-hydroxynaphthalen-1-yl)-8-fluoropyrido[4,3-d]pyrimidin-2-yl)oxy]methyl}-4-methylpiperazin-1-yl]methyl}azetidin-1-yl)-1,2-oxazol-5-yl]-3-methylbutanoyl]-4-hydroxy-N-[(1S)-1-[4-(4-methyl-1,3-thiazol-5-yl)phenyl]ethyl]pyrrolidine-2-carboxamide]",,> 3000
